Test results published in US10195204B2, “Methods of treating hemoglobinopathies” (DUKE UNIVERSITY, priority 2011, dated 2019).

What was measured:
Format in all cases: cell-based, human
[1] = tested on: ERK1/2 phosphorylation in SS RBCs; experiment: ERK1/2 phosphorylation in SS RBCs, Western blot (phosphoERK normalized to total ERK)
Description: Aliquots of packed RBCs were treated with various reagents to affect cAMP signaling or protein phosphorylation. […] Treated RBCs were then washed 5 times with 4 ml PBS with Ca^2+ and Mg^2+. Normal RBCs were used as controls. Prior to adhesion assays, treated RBCs were labeled with PKH 26 red fluorescent cell linker kit (Sigma), following the manufacturer's instructions.
Treated packed RBCs were lysed with hypotonic buffer (5 mM Na2HPO4+1 mM EDTA+0.1% NaN3, pH 8) containing 2 mM phenylmethylsulphonylfluoride (PMSF, Sigma), phosphatase inhibitor cocktail (Sigma) and protease inhibitor cocktail (Sigma). Protein separation by polyacrylamide gel electrophoresis using equal amounts of total RBC membrane ghost proteins per lane, after correcting total protein measurements for residual hemoglobin content, and Western blot^19 using the appropriate Ab were then performed. Mouse 3T3/A31 fibroblast lysate was used as a ERK1/2 positive control for immunoblots. For total ERK1/2, membranes blotted with anti-phosphoERK Ab were stripped and reexposed to Western blotting using anti-ERK1/2 Ab. Bands were analyzed densitometrically using ImageJ software downloaded from the NIH website. PhosphoERK1/2 data were normalized according to total ERK1/2 and are presented as fold change in ERK phosphorylation.

[2] = tested on: SS RBC adhesion to HUVECs; experiment: Flow chamber adhesion of SS RBCs to non-activated HUVECs; details: for mean decrease in SS RBC adhesion after 30 min exposure: 30 min vs 1 min epinephrine
Description: Cells were then washed three times with 5 ml PBS with Ca^2+ and Mg^2+. Prior to adhesion assays, washed treated SS RBCs were labeled with PKH 26 red fluorescent cell linker kit (Sigma-Aldrich, St. Louis, Mo.), following the manufacturer's instructions. […] The flow chamber was mounted on the stage of an inverted phase contrast microscope (Diaphot, Nikon Inc., Melville, N.Y.) connected to a thermoplate (Tokai Hit Co., Ltd., Japan) set at 37° C. […] Before exposure to flow, a minimum of three fields at each of seven different locations along a line oriented normal to future flow were examined for the total number of fluorescent cells. Fluid flow (HBSS with Ca^2+, Mg^2+) was then started using a calibrated syringe pump. After exposure to flow, the fields were again examined and the number of adherent cells counted. The fraction of adherent cells was presented as (number of cells attached after exposure to flow)/(cells present per field before flow). The wall shear stress was calculated as: [formula] τw=wall shear stress (dyne/cm^2); Q=volumetric flow rate (cm^3/s); μ is media viscosity, w is the width of the flow channel, and H(x) is the height of the flow chamber as a function of position along the microscope slide. Several investigators have shown that blood flow in small vessels may be continuous, with shear stresses of 1-2 dynes/cm^2, or flow may be intermittent. Our data were obtained using both intermittent and continuous flow conditions.

[3] = tested on: ICAM-4 (LW) phosphorylation; experiment: 32P labeling, ICAM-4 immunoprecipitation and detection of phosphorylation in SS RBCs
Description: Cells were then washed 4 times. ICAM-4 protein immunoprecipitation, and total and phospho-ICAM-4 detection were performed as previously described in detail.^4 To further confirm that the immunoprecipitates were specific for ICAM-4, anti-ICAM-4 mAb and the negative control immunoglobulin P3 were used to immunoprecipitate ICAM-4 from non-radiolabeled SS RBCs incubated in the presence or absence of epinephrine. Blots were then immunostained with anti-ICAM-4 mAb.

[4] = shear stress 2 dynes/cm^2, intermittent flow

Compound | effect on forskolin-induced ERK1/2 phosphorylation ([1]; SS RBCs) | effect on epinephrine-induced ERK1/2 phosphorylation ([1]; SS RBCs pre-incubated with inhibitor, then 20 nM epinephrine 1 min) | effect on PTx-induced ERK phosphorylation ([1]; SS RBCs, 2 μg/ml PTx) | inhibition of SS RBC adhesion to non-activated HUVECs vs sham-treated SS RBCs ([2]; U0126 alone) [%] | inhibition of forskolin-increased SS RBC adhesion to HUVECs ([2]; shear stress 2 dynes/cm^2, compared to forskolin alone) [%] | effect on epinephrine-induced SS RBC adhesion to HUVECs [2, 4] | effect on combined effect of epinephrine and SPI on ICAM-4 phosphorylation ([3]; SS RBCs preincubated with inhibitor) | ERK phosphorylation vs 1 min exposure [1] | ERK phosphorylation vs sham-treated [1] | fold increase in ERK phosphorylation [1] [fold] | increase in ERK phosphorylation above basal levels [1] [fold] | patients whose SS RBCs exhibited more than 1.5-fold elevation in ERK phosphorylation (responders) [1] [%] | mean decrease in SS RBC adhesion after 30 min exposure ([2]; constant flow) [%] | mean decrease in SS RBC adhesion after 30 min exposure ([2]; intermittent flow) [%] | effect on SS RBC adhesion to HUVECs [2, 4] | ICAM-4 phosphorylation over sham-treated cells ([3]; epinephrine 1 min in the presence of SPI (FIG. 4F)) [fold] | ICAM-4 phosphorylation vs 1 min exposure ([3]; epinephrine 30 min in the presence of SPI) | increase in ICAM-4 phosphorylation over sham-treated SS RBCs ([3]; epinephrine in the presence of SPI) [fold]
N#CC(=C(/N)Sc1ccccc1N)/C(C#N)=C(\N)Sc1ccccc1N [U0126] | prevented | significantly inhibited | blocked | 91±4.6 | 83±4 | completely inhibited | significantly decreased |  |  |  |  |  |  |  |  |  |  | 
CNC[C@H](O)c1ccc(O)c(O)c1 [epinephrine] |  |  |  |  |  |  |  | decreased | markedly increased | 2.1±0.1 | 2±0.17 | 40 | 73±4.7 | 56±1.5 | significantly up-regulated | 1.84±0.15 | significantly diminished | 7.4±1.07
